# Target: human enteropeptidase (hEP), enterokinase (Homo sapiens, UniProt P98073)
# Assay: cryo-EM structure of inhibited hEP-core ([…] Å); SPR affinity; enzyme activity inhibition
# Format: binding
# Parameters: gene TMPRSS15; hEP-core resolved; SPR: commercial hEP
# Sequence of human enteropeptidase (hEP), enterokinase (P98073 182-784): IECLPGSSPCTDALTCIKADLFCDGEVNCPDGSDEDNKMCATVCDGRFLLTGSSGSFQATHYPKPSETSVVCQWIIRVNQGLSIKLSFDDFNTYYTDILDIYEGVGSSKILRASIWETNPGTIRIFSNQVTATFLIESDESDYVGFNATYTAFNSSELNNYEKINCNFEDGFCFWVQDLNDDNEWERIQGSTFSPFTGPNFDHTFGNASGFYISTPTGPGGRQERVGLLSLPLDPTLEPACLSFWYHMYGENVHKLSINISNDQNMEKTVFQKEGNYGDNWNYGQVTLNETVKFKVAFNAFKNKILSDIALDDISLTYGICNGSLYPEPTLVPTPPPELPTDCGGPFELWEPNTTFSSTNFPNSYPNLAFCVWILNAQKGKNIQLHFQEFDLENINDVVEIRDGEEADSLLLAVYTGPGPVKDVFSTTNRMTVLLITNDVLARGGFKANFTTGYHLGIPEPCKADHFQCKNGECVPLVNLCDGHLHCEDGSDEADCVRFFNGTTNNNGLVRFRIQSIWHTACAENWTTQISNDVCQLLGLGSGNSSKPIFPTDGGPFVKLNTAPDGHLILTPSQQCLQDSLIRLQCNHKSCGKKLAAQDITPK
# Sequence of human enteropeptidase (hEP), enterokinase (P98073 785-1019): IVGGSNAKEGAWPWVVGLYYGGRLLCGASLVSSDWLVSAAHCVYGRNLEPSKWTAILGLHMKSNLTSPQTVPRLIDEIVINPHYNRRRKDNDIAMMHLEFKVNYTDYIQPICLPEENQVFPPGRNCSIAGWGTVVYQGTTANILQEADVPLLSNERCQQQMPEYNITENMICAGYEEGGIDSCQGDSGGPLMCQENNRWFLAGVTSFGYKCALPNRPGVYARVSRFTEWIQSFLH
structure (smiles),measurement,value
N=C(N)c1ccc2cc(OC(=O)c3ccc(N=C(N)N)cc3)ccc2c1 [nafamostat],Kd,95.1 µM

# Reference: paper PMC9663175, “Cryo-EM structures reveal the activation and substrate recognition mechanism of human enteropeptidase” (Nature Communications, 2022)
